The results in this text go back to ChEMBL document CHEMBL1147301, “Studies on inhibitors of skin-tumor promotion. Inhibitory effects of triterpenes from Cochlospermum tinctorium on Epstein-Barr virus activation” (J Nat Prod, 1989).

Experiment [1] deals with Raji. In words: Inhibition of EBV-early antigen activation in human Raji cells assessed as early antigen activation at 4 mM. Conditions: human gammaherpesvirus 4. In kind it is cell-based. Set-up: scale not given: the % may be the effect or the level left.
Experiment [2] concerns Raji. In words: Inhibition of 12-O-tetradecanoylphorbol-13-acetate-induced EBV-early antigen activation in human Raji cells assessed as early antigen activation at 4 mM ratio relative to TPA. In kind it is cell-based. Set-up: scale not given: the % may be the effect or the level left. The conditions noted are these: human gammaherpesvirus 4.

For `CCCC(=O)O`, the Activity in the experiment with Raji [1] amounted to 0.1%; in the experiment on Raji [2] it was 34.5%.
